Tests used:
[1] = DRUGMATRIX: Leukotriene, BLT (LTB4) radioligand binding (ligand: [3H]LTB4); format: cell membranes, Membrane; conditions: u-937; Not Active = under 50% inhibition at 10 µM
Mu-type opioid receptor = Mu-type opioid receptor (Homo sapiens, UniProt P35372); test: DRUGMATRIX: Opiate mu (OP3, MOP) radioligand binding (ligand: [3H] Diprenorphine); format: cell membranes, CHO-K1, Membrane; conditions: cho-k1; Not Active = under 50% inhibition at 10 µM
[2] = target: Kappa-type opioid receptor (Homo sapiens, UniProt P41145); test: DRUGMATRIX: Opiate kappa (OP2, KOP) radioligand binding (ligand: [3H] Diprenorphine); format: cell membranes, HEK293, Membrane; conditions: hek293; Not Active = under 50% inhibition at 10 µM
Sequence of Kappa-type opioid receptor (P41145 whole entry): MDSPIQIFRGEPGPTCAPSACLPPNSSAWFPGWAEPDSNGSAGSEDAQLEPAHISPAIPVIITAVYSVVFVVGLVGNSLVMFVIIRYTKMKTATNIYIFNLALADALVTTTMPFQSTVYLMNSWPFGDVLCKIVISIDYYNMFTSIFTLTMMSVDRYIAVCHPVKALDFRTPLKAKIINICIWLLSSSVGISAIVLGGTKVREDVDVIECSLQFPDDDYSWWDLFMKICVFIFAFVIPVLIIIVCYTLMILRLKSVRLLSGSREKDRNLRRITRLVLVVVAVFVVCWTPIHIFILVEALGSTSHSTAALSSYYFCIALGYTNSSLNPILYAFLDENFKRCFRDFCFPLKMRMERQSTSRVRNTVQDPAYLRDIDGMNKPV

[3] = target: T1, Cholecystokinin receptor type A (Homo sapiens, UniProt P32238); format: cell membranes, Membrane; conditions: 1321-n1; further: in other assays of this panel Not Active means under 50% inhibition at 10 µM
T1 sequence (P32238 whole entry): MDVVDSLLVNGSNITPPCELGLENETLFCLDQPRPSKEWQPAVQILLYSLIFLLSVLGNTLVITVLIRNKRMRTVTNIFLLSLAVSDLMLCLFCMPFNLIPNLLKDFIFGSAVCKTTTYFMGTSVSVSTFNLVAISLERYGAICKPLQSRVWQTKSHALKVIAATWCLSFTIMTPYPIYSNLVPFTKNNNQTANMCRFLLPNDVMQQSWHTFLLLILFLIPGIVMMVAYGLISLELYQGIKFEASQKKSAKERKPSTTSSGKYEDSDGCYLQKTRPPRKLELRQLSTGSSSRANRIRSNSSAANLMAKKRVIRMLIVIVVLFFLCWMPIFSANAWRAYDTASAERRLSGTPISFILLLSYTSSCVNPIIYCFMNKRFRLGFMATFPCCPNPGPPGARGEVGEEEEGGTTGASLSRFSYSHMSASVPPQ

B2 bradykinin receptor = target: T2, B2 bradykinin receptor (Homo sapiens, UniProt P30411); format: cell membranes, Membrane; conditions: chem-1; further: in other assays of this panel Not Active means under 50% inhibition at 10 µM
T2 sequence (P30411 whole entry): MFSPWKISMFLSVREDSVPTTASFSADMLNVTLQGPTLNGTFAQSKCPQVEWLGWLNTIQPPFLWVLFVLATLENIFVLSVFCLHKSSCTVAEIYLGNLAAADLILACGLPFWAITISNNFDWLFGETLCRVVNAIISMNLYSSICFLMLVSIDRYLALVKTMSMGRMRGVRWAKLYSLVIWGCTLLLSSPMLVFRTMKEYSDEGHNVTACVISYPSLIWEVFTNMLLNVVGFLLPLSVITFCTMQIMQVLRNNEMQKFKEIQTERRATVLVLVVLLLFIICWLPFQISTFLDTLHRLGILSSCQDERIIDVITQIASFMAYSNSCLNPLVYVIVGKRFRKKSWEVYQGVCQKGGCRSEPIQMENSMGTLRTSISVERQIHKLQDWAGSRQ

[4] = target: T3, Alpha-1D adrenergic receptor (Homo sapiens, UniProt P25100); format: cell membranes, HEK293, Membrane; further: in other assays of this panel Not Active means under 50% inhibition at 10 µM
T3 sequence (P25100 whole entry): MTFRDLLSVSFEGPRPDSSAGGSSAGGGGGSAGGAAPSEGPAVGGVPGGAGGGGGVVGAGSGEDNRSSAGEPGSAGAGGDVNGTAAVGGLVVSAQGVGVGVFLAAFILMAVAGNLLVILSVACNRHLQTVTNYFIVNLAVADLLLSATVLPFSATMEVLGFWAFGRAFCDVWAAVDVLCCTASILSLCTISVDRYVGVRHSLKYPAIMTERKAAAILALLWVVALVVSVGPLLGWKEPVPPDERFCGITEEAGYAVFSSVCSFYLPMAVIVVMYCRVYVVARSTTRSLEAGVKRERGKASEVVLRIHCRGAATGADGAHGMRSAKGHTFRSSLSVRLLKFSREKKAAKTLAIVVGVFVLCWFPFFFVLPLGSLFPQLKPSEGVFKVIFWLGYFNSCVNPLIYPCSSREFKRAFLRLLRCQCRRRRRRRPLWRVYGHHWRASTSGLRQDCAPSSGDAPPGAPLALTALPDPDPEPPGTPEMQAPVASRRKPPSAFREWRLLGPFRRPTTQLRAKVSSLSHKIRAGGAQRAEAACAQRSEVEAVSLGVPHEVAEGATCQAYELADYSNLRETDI

[5] = target: T4, Muscarinic acetylcholine receptor M2 (Homo sapiens, UniProt P08172); format: cell membranes, CHO-K1, Membrane; conditions: cho-k1; further: in other assays of this panel Not Active means under 50% inhibition at 10 µM
T4 sequence (P08172 whole entry): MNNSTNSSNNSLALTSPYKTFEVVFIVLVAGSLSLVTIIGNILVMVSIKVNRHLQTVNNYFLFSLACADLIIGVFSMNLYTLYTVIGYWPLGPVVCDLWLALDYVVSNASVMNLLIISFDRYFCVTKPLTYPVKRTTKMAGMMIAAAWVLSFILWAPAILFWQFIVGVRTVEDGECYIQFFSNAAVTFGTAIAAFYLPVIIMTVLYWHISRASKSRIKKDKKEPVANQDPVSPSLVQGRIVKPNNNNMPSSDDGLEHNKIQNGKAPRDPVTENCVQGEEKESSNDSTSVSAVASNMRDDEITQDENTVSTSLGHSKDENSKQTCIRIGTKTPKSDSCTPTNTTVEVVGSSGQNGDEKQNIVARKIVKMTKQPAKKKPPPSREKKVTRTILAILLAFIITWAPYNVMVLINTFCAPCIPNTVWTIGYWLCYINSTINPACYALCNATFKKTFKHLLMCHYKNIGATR

Sequence of Mu-type opioid receptor (P35372 whole entry): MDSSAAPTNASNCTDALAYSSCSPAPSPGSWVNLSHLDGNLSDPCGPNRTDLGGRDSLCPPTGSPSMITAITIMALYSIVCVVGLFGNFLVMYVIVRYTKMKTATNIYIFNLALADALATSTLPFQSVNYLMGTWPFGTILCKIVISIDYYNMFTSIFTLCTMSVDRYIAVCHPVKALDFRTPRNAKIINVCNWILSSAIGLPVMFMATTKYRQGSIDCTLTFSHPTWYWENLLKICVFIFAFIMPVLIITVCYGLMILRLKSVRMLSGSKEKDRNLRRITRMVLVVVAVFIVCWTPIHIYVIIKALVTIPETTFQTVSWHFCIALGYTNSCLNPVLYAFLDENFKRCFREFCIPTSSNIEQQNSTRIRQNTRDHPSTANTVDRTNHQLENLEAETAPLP

Compound	IC50 [1]	Ki [1]	IC50 (Mu-type opioid receptor)	IC50 [2]	IC50 [3]	IC50 (B2 bradykinin receptor)	IC50 ([4]; hek293)	IC50 [5]	IC50 ([4]; read-out: IC50)	Ki ([4]; read-out: Ki)
CC(C)NCC(O)c1ccc(O)c(O)c1 (stereo not given) [ISOPROTERENOL]	Not Active	Not Active	Not Active	Not Active	Not Active	Not Active	Not Active	Not Active	–	–
CNC1(c2ccccc2Cl)CCCCC1=O (stereo not given) [KETAMINE]	Not Active	Not Active	Not Active	Not Active	Not Active	Not Active	Not Active	Not Active	–	–
N#Cc1ccc(C(c2ccc(C#N)cc2)n2cncn2)cc1 [LETROZOLE]	Not Active	Not Active	Not Active	Not Active	Not Active	Not Active	Not Active	Not Active	–	–
CCN1CCC[C@H]1CNC(=O)c1cc(S(N)(=O)=O)ccc1OC [LEVOSULPIRIDE]	Not Active	Not Active	Not Active	Not Active	Not Active	Not Active	Not Active	Not Active	–	–
CCN(CC)CC(=O)Nc1c(C)cccc1C [LIDOCAINE]	Not Active	Not Active	Not Active	Not Active	Not Active	Not Active	Not Active	Not Active	–	–
O=C1Nc2ccc(Cl)cc2C(c2ccccc2Cl)=NC1O (stereo not given) [LORAZEPAM]	Not Active	Not Active	Not Active	Not Active	Not Active	Not Active	Not Active	Not Active	–	–
CO[C@@H]1[C@@H](OC)[C@H](C)[C@@](O)(CC(=O)O)O[C@H]1[C@H](C)[C@H]1O[C@@]2(CC[C@@](C)([C@H]3CC[C@@](C)([C@@H]4O[C@@H]([C@H]5O[C@](C)(O)[C@H](C)C[C@@H]5C)C[C@@H]4O[C@@H]4C[C@H](OC)[C@@H](OC)[C@H](C)O4)O3)O2)C[C@H](O)[C@H]1C [MADURAMICIN ACID]	Not Active	Not Active	Not Active	Not Active	Not Active	Not Active	–	Not Active	1130 nM	554 nM
COc1c2occc2cc2ccc(=O)oc12 [METHOXSALEN]	Not Active	Not Active	Not Active	Not Active	Not Active	Not Active	Not Active	Not Active	–	–
C[C@H]1C[C@@H]2[C@H]([C@@H](O)C[C@@]3(C)[C@H]2CC[C@]3(O)C(=O)CO)[C@@]2(C)C=CC(=O)C=C12 [METHYLPREDNISOLONE]	Not Active	Not Active	Not Active	Not Active	Not Active	Not Active	Not Active	Not Active	–	–
Cc1cccc(C)c1OCC(C)N (stereo not given) [MEXILETINE]	Not Active	Not Active	Not Active	Not Active	Not Active	Not Active	Not Active	Not Active	–	–
Nc1cc(N2CCCCC2)nc(N)[n+]1[O-] [MINOXIDIL]	Not Active	Not Active	Not Active	Not Active	Not Active	Not Active	Not Active	Not Active	–	–
CO[C@H]1/C=C/O[C@@]2(C)Oc3c(C)c(O)c4c(O)c(c(/C=N/N5CCN(C6CCCC6)CC5)c(O)c4c3C2=O)NC(=O)/C(C)=C\C=C\[C@H](C)[C@H](O)[C@@H](C)[C@@H](O)[C@@H](C)[C@H](OC(C)=O)[C@@H]1C [RIFAPENTINE]	Not Active	Not Active	Not Active	Not Active	Not Active	Not Active	Not Active	Not Active	–	–
CCCCOc1cc(CC2CNC(=O)N2)ccc1OC (stereo not given) [RO-201724]	Not Active	Not Active	Not Active	Not Active	Not Active	Not Active	Not Active	Not Active	–	–

Source: ChEMBL document CHEMBL1909046, “DrugMatrix in vitro pharmacology data”
